# Laboratory results taken from publication PMC6934184, “Selective DNA-PKcs inhibition extends the therapeutic index of localized radiotherapy and chemotherapy” (The Journal of Clinical Investigation, 2019).
# Target: T1, CLK1 (Homo sapiens, UniProt P49759)
# T1 construct: purchased Thermo Fisher Scientific (Life Technologies) SelectScreen
# Assay: SelectScreen Z'LYTE
# Assay type: biochemical
# Procedure, shortened: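 Percent values come from Thermo SelectScreen profiling of NU5455, combining activity and binding assays. CSF1R was run in Z'LYTE format at Km app ATP, and CAMK1 in Adapta format with ATP listed at 10.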
# T1 sequence (P49759 whole entry): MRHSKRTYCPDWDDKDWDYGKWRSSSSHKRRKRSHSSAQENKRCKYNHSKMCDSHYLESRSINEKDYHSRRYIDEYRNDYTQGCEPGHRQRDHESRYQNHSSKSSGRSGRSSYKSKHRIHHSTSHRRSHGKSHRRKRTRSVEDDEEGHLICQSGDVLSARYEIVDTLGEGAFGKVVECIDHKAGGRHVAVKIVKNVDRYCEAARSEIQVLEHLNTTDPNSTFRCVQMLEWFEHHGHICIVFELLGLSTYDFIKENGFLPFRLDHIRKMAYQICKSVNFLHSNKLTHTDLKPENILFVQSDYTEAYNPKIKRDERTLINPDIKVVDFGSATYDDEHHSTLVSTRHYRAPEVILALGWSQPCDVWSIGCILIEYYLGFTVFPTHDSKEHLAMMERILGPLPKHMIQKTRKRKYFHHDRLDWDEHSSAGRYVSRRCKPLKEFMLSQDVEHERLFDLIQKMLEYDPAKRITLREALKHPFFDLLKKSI
compound,measurement,value
CN(C(=O)CN1CCOCC1)c1ccc2sc3c(-c4cccc5c(=O)cc(N6CC7CCC(C6)O7)oc45)cccc3c2c1 [NU5455],inhibition at 1 µM,11.7%
